Reference: patent US4091006A, “Esters of 3-hydroxyindone compounds” (priority 1975, dated 1978)

Assays:
[1] = test system: adults and nymphal stages of the two-spotted mite; test: Mite Foliage Spray Test; type: in vivo, Tetranychus urticae (Koch); design: key: 1: no mortality; 3: an approximately 50% mortality; 5: 100% mortality; settings: 4 days
Source text: (§1) The test procedures were as follows:
(§2) Compositions were rated on the basis of percent kill with a rating of 1 indicating no mortality; 3 signifying an approximately 50% mortality and 5 indicating 100% mortality at the indicated dosage.

[2] = test system: egg of the two-spotted mite; test: Mite Ovicide Test; type: in vivo, Tetranychus urticae (Koch); design: key to Mite Ova rating: 1: no mortality; 3: an approximately 50% mortality; 5: 100% mortality; settings: spray on eggs, 4 days
Source text: as §1
The plants were allowed to dry thoroughly.
as §2

[3] = test system: Perennial rye grass, crabgrass, red root pigweed, mustard; test: Preliminary Herbicide Seed Germination Test; settings: each rated 1 (no injury) to 5 (no seedlings emerged)
Source text: The thus-prepared stock suspension contained 0.5 percent by weight of compound. The test concentrations employed in the tests described hereinbelow were obtained by diluting the stock suspension with water. The test procedures were as follows:
The following seeds were used in this test:
Crabgrass -- Digitaria san-
Mustard -- Brassica pincea var.
Each of above mixtures is rolled separately in 5 gallon containers for approximately one-half hour on ball mill to insure uniform mixing of seeds and soil. For each compound four 3-inch pots are filled with soil to within 11/2 inches of top of pots. To 2 of these pots are added 70 cc. of Mixture I. To the remaining 2 pots are added 70 cc. of Mixture II. The seed-soil mixture is tamped firmly, and the pots are removed to the greenhouse and watered lightly. About 2 hours after planting, 25 milliliters of the test formulation were added to each of 2 pots for each soil-seed mixture; i.e., one replicate of each seed mixture per concentration. An equal volume of a water solution containing acetone and an emulsifier in the same concentration as the herbicidal mixture but without the candidate herbicide is also added to each of the soil-seed mixtures. These pots are used as check or control units. The test compounds are formulated by standard procedure of solution in acetone, addition of an emulsifier, and dilution with water. Tests were conducted on all compositions at low concentration (100 ppm.). Certain compositions were also tested at high concentration (1000 ppm). The pots were held in the greenhouse and watered lightly until results were taken. Ten to twelve days after application of chemical, injury is noted for each species by comparing treated vs. untreated pots. Ratings are made at both the high and the low concentrations (1000 ppm and 100 ppm) according to the following designations:
4 = few seedlings emerged and/or very severe stunting
3 = moderate reduction in stand and/or moderate stunting
2 = very slight reduction in stand and/or slight stunting
1 = no injury; seedlings appear no different with respect to stand or growth than untreated controls
Accordingly, the maximum rating for one test seed species tested at both high and low concentration is 10 and the maximum possible total preemergence rating is 40 (10 for each of the four test seed species). […] In some tests the crabgrass experiment was omitted. In these tests the maximum total rating for species tested at both high and low concentrations is 30 and 15 for species tested only at low concentrations.

[4] = rating/maximum 20: 100 ppm only, four species
[5] = rating/maximum 40: 100 and 1000 ppm, four species, 10-12 days
[6] = rating/maximum 30: 100 and 1000 ppm, crabgrass omitted
[7] = rating/maximum 15: 100 ppm only, crabgrass omitted

| Compound | Mite Adult rating [1] | Mite Ova rating [2] | Herbicide (total preemergence rating) [3, 4] | Herbicide (total preemergence rating) [3, 5] | Herbicide (total preemergence rating) [3, 6] | Herbicide (total preemergence rating) [3, 7] |
| --- | --- | --- | --- | --- | --- | --- |
| CCCC(C)C(=O)OC1=C(c2ccccc2Cl)C(=O)c2ccccc21 (stereo not drawn) [2-(2'-Chlorophenyl)-3-(2-methylpentanoyloxy)indone] | 5 (100% mortality) | 5 (100% mortality) | 4/20 | – | – | – |
| O=C(OC1=C(c2c(Cl)cccc2Cl)C(=O)c2ccccc21)c1ccccc1 [3-(Benzoyloxy)-2-(2',6'-dichlorophenyl)indone] | 5 (100% mortality) | 5 (100% mortality) | – | 32/40 | – | – |
| COc1cc(C)c(C)c(C)c1C1=C(OC(=O)C(C)(C)C)c2ccccc2C1=O [3-(Pivaloyloxy)-2-(6'-methoxy-2',3',4'-trimethylphenyl)indone] | 1 | 1 | – | 16/40 | – | – |
| CCCCCCCCCCCC(=O)OC1=C(c2ccc(C)cc2C)C(=O)c2ccccc21 [2-(2',4'-Dimethylphenyl)-3-(lauroyloxy)indone] | 5 (100% mortality) | 5 (100% mortality) | 14/20 | – | – | – |
| CC(=O)OC1=C(c2ccccc2)C(=O)c2ccccc21 [2-Phenyl-3-(acetoxy)indone] | 1 | 1 | – | 8/40 | – | – |
| Cc1cc(C)c(C2=C(OC(=O)c3ccco3)c3ccccc3C2=O)c(C)c1 [2-(2',4',6'-Trimethylphenyl)-3-(2-furoyloxy)indone] | 5 (100% mortality) | 5 (100% mortality) | 17/20 | – | – | – |
| Cc1cc(C)c(C2=C(OC(=O)c3ccc(Cl)cc3)c3ccccc3C2=O)c(C)c1 [3-(4-Chlorobenzoyloxy)-2-(2',4',6'-trimethylphenyl)indone] | 5 (100% mortality) | 5 (100% mortality) | – | – | 24/30 | – |
| O=C(OC1=C(c2c(Cl)cccc2Cl)C(=O)c2ccccc21)c1cc(Cl)cc(Cl)c1 [3-(3,5-Dichlorobenzoyloxy)-2-(2',6'-dichlorophenyl)indone] | 5 (100% mortality) | 5 (100% mortality) | – | – | 24/30 | – |
| Cc1cc(C)c(C2=C(OC(=O)COc3ccc(Cl)cc3Cl)c3ccccc3C2=O)c(C)c1 [2-(2',4',6'-Trimethylphenyl)-3-(2,4-dichlorophenoxyacetoxy)indone] | 5 (100% mortality) | 5 (100% mortality) | 20/20 | – | – | – |
| Cc1cc(C)c(C2=C(OC(=O)c3cc(Cl)cc(Cl)c3)c3ccccc3C2=O)c(C)c1 [3-(3,5-Dichlorobenzoyloxy)-2-(2',4',6'-trimethylphenyl)indone] | 5 (100% mortality) | 5 (100% mortality) | – | – | 23/30 | – |
| COc1cccc(OC)c1C(=O)OC1=C(c2c(Cl)cccc2Cl)C(=O)c2ccccc21 [3-(2,6-Dimethoxybenzoyloxy)-2-(2',6'-dichlorophenyl)indone] | 1 | 1 | – | – | – | 12/15 |
| Cc1cc(C)c(C2=C(OC(=O)c3cccs3)c3ccccc3C2=O)c(C)c1 [2-(2',4',6'-Trimethylphenyl)-3-(2-thenoyloxy)indone] | 5 (100% mortality) | 5 (100% mortality) | 18/20 | – | – | – |
| Cc1cccc(C(=O)OC2=C(c3c(Cl)cccc3Cl)C(=O)c3ccccc32)c1 [3-(3-Methylbenzoyloxy)-2-(2',6'-dichlorophenyl)indone] | 5 (100% mortality) | 5 (100% mortality) | – | 29/40 | – | – |
| Cc1cc(C)c(C2=C(OC(=O)N3CCCCC3)c3ccccc3C2=O)c(C)c1 [2-(2',4',6'-Trimethylphenyl)-3-(piperdinocarbonyloxy)indone] | 1 | 3 (an approximately 50% mortality) | 4/20 | – | – | – |
| CCCCC(CC)C(=O)OC1=C(c2ccccc2)C(=O)c2ccccc21 (stereo not drawn) [3-(2-Ethylhexanoyloxy)-2-phenylindone] | 1 | 1 | 4/20 | – | – | – |
| CCc1ccccc1C1=C(OC(=O)C(C)(C)C)c2ccccc2C1=O [2-(2'-Ethylphenyl)-3-pivaloyloxyindone] | 1 | 1 | 4/20 | – | – | – |
| 2-(2'-Methoxyphenyl)-3-(neodecanoyloxy)indone | 1 | 1 | 4/20 | – | – | – |

| Compound | Mite Adult rating [1] | Mite Ova rating [2] | Herbicide (total preemergence rating) [3, 4] | Herbicide (total preemergence rating) [3, 5] | Herbicide (total preemergence rating) [3, 6] | Herbicide (total preemergence rating) [3, 7] |
| --- | --- | --- | --- | --- | --- | --- |
| O=C(OC1=C(c2c(Cl)cccc2Cl)C(=O)c2ccccc21)c1ccc(Cl)cc1Cl [3-(2,4-Dichlorobenzoyloxy)-2-(2',6'-dichlorophenyl)indone] | 5 (100% mortality) | 5 (100% mortality) | – | 28/40 | – | – |
| Cc1cc(C)c(C2=C(OC(=O)Cc3ccccc3)c3ccccc3C2=O)c(C)c1 [2-(2',4',6'-Trimethylphenyl)-3-(phenylacetoxy)indone] | 5 (100% mortality) | 5 (100% mortality) | 19/20 | – | – | – |
| CC(=O)OC1=C(c2ccccc2Br)C(=O)c2ccccc21 [3-Acetoxy-2-(2'-bromophenyl)indone] | 5 (100% mortality) | 5 (100% mortality) | – | 19/40 | – | – |
| Cc1cc(C)c(C2=C(OC(=O)c3c(C)cccc3C)c3ccccc3C2=O)c(C)c1 [3-(2,6-Dimethylbenzoyloxy)-2-(2',4',6'-trimethylphenyl)indone] | 1 | 1 | 4/20 | – | – | – |
| COc1cccc(C(=O)OC2=C(c3c(Cl)cccc3Cl)C(=O)c3ccccc32)c1 [3-(3-Methoxybenzoyloxy)-2-(2',6'-dichlorophenyl)indone] | 5 (100% mortality) | 5 (100% mortality) | – | – | 23/30 | – |
| Cc1ccccc1C1=C(OC(=O)C(C)(C)C)c2ccccc2C1=O [2-(2'-Methylphenyl)-3-(pivaloyloxy)indone] | 5 (100% mortality) | 5 (100% mortality) | – | 20/40 | – | – |
| CC(C)(C)C(=O)OC1=C(c2ccccc2C(F)(F)F)C(=O)c2ccccc21 [2-(2'-Trifluoromethylphenyl)-3-pivaloyloxy indone] | 1 | 1 | 4/20 | – | – | – |
| Cc1ccc(C(=O)OC2=C(c3c(C)cc(C)cc3C)C(=O)c3ccccc32)c(C)c1 [3-(2,4-Dimethylbenzoyloxy)-2-(2',4',6'-trimethylphenyl)indone] | 1 | 5 (100% mortality) | – | – | – | 11/15 |
| Cc1cc(C(C)(C)C)cc(C)c1C1=C(OC(=O)C(C)(C)C)c2ccccc2C1=O [2-(2',6'-Dimethyl-4'-t-butylphenyl)-3-(pivaloyloxy)indone] | 1 | 1 | – | 9/40 | – | – |
| O=C(OC1=C(c2c(Cl)cccc2Cl)C(=O)c2ccccc21)c1cccc([N+](=O)[O-])c1 [3-(3-Nitrobenzoyloxy)-2-(2',6'-dichlorophenyl)indone] | 5 (100% mortality) | 5 (100% mortality) | – | – | 26/30 | – |
| CCCCCCCCCCCCCCCCCC(=O)OC1=C(c2ccc(C)cc2C)C(=O)c2ccccc21 [2-(2',4'-Dimethylphenyl)-3-(stearoyloxy)indone] | 3 (an approximately 50% mortality) | 5 (100% mortality) | 14/20 | – | – | – |
| CCCC(=O)OC1=C(c2c(C)cc(C)cc2C)C(=O)c2ccccc21 [2-(2',4',6'-Trimethylphenyl)-3-(butyryloxy)indone] | 5 (100% mortality) | 5 (100% mortality) | – | – | – | 15/15 |
| Cc1cc(C)c(C2=C(OC(=O)c3ccccc3)c3ccccc3C2=O)c(C)c1 [3-Benzoxyloxy-2-(2',4',6'-trimethylphenyl)indone] | 5 (100% mortality) | 5 (100% mortality) | – | 31/40 | – | – |
| O=C1C(c2c(Cl)cccc2Cl)=C(OC(=O)c2c(Cl)cccc2Cl)c2ccccc21 [3-(2,6-Dichlorobenzoyloxy)-2-(2',6'-dichlorophenyl)indone] | 1 | 1 | – | 8/40 | – | – |
| COc1cc(C)c(C2=C(OC(=O)C(C)(C)C)c3ccccc3C2=O)c(C)c1 [2-(2',6'-Dimethyl-4'-methoxyphenyl)-3-(pivaloyloxy)indone] | 3 (an approximately 50% mortality) | 3 (an approximately 50% mortality) | – | 24/40 | – | – |
| COc1ccccc1C1=C(OC(=O)C(C)(C)C)c2ccccc2C1=O [2-(2'-Methoxyphenyl)-3-(pivaloyloxy)indone] | 1 | 1 | – | 8/40 | – | – |
| O=C1C(c2c(Cl)cccc2Cl)=C(OC(=O)c2c(Cl)ccc(Cl)c2Cl)c2ccccc21 [3-(2,3,6-Trichlorobenzoyloxy)-2-(2',6'-dichlorophenyl)indone] | 5 (100% mortality) | 5 (100% mortality) | – | 20/40 | – | – |
